Data: US7329665B2, “Quinazolinone derivative” (Dainippon Sumitomo Pharma Co., Ltd., priority 2001, dated 2008)

Tested on: rhythmic contractions of the bladder
Assay: Effect on rhythmic contractions of bladder (cystometry in urethane-anesthetized rats, i.v. administration)
Format: in vivo
Settings: female SD-rats under urethane anesthesia, intravenous, ascending doses in 10% PEG, relative to vehicle; for Contractile amplitude: ED30: mean amplitude of bladder contraction during 10-minute period after administration; for Contractile frequency: ED30: mean frequency of bladder contraction during 10-minute period after administration
Method: Effect on Rhythmic Contractions of Bladder This test was carried out by some modification of the method of Hedge et al. [Hedge S S. Choppin A. Bonhaus D. Briaud S. Loeb M. Moy T M. Loury D. Eglen R M., British Journal of Pharmacology. 120(8):1409-18, 1997]. Female SD-rats were subjected to abdominal midline incision under urethane anesthesia (0.6 g/kg, s.c. and i.p.), the ureters were ligated, and its kidney side was cut off. A polyethylene cannula was inserted from the urethra into the bladder and the urethra was ligated. The other end of the cannula was connected to a three way connector, to which a constant infusion pump having a 20 ml attached syringe and a pressure transducer for cystometry were also connected. A cannula for administration of a test sample was inserted into the jugular vein and a cannula for measurement of blood pressure and heart rate was inserted into the carotid artery. The intravesical pressure, blood pressure and heart rate were continuously recorded on a polygraph. Physiological saline was infused until rhythmic contractions of the bladder were observed, and after having confirmed stable rhythmic contractions of the bladder, vehicle (10% PEG) and solutions of a test sample dissolved in 10% PEG were administered intravenously in turn from its lower dose. The mean of amplitude and frequency of bladder contraction during a 10-minute period after administration were measured at each dose level, and their rates of change relative to the values obtained when the vehicle alone was administered were calculated, thereby determining ED30 values for the contractile amplitude and the contractile frequency, respectively. It is apparent from Table 1 that the compounds of the present invention depressed not only the contractile amplitude but also the contractile frequency.

Row | SMILES | Contractile amplitude: ED30 | Contractile frequency: ED30
1 | O=C1Nc2ccccc2C(c2ccccc2)N1C1CCN(Cc2cccc(OCC(F)(F)F)c2)CC1 (stereo not shown) [Example 2-4, Optically Active Form of 3-{1-[3-(2,2,2-trifluoroethoxy)phenylmethyl]piperidin-4-yl}-4-phenyl-3,4-dihydro-2(1H)-quinazolinone] | 1.42 mg/kg | 1.35 mg/kg
2 | CCCc1cccc(CN2CCC(N3C(=O)Nc4ccccc4C3c3ccccc3)CC2)c1 (stereo not shown) [Example 2-1, Optically Active Form of 3-[1-(3-propylphenylmethyl)piperidin-4-yl]-4-phenyl-3,4-dihydro-2(1H)-quinazolinone] | 1.09 mg/kg | 0.70 mg/kg
3 | O=C1Nc2ccccc2C(c2ccccc2)N1C1CCN(Cc2cccc(OC(F)(F)F)c2)CC1 (single isomer, unassigned; (+)) [Example 1, (+)-3-{1-[3-(trifluoromethoxy)benzyl]piperidin-4-yl}-4-phenyl-3,4-dihydro-2(1H)-quinazolinone] | 1.71 mg/kg | 1.31 mg/kg
4 | CC(C)Oc1cccc(CN2CCC(N3C(=O)Nc4ccccc4C3c3ccccc3)CC2)c1 (stereo not shown) [Example 2-3, Optically Active Form of 3-[1-(3-isopropoxyphenylmethyl)piperidin-4-yl]-4-phenyl-3,4-dihydro-2(1H)-quinazolinone] | 1.10 mg/kg | 1.54 mg/kg
5 | Cc1cccc(CN2CCC(N3C(=O)Nc4ccccc4C3C(C)C)CC2)n1 (single isomer, unassigned; (+)) [Example 3, (+)-4-isopropyl-3-{1-[(6-methyl-2-pyridinyl)methyl]piperidin-4-yl}-3,4-dihydro-2(1H)-quinazolinone] | 0.94 mg/kg | 1.79 mg/kg
